Measurements taken from publication PMC3640428 (Journal of the American Chemical Society, 2013).

Target: T1, T. thermophilus GluRS (glutamyl-tRNA synthetase) (Thermus thermophilus, UniProt P27000)
T1 sequence (P27000 1-468): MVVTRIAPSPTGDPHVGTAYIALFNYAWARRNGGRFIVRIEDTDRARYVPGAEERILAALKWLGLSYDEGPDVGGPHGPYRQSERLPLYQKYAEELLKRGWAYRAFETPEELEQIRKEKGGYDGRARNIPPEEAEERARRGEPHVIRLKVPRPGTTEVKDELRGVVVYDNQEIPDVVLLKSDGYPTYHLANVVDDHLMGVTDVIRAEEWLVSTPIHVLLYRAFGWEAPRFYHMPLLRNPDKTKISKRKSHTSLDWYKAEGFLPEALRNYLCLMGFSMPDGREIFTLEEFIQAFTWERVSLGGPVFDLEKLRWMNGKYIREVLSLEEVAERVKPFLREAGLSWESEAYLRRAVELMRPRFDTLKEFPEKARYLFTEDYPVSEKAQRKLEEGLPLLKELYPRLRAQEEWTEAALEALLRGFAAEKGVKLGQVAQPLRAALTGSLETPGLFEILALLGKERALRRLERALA
Experiment: intrinsic tryptophan fluorescence titration
Format: binding

## Nc1ncnc2c1ncn2[C@@H]1O[C@H](COP(=O)(O)OP(=O)(O)OP(=O)(O)O)[C@@H](O)[C@H]1O [ATP]
  Kd: 50 ± 12 µM
